Data on 11 compounds can be found in patent US9661853B2, “Molecules having pesticidal utility, and intermediates, compositions, and processes, related thereto” (Dow AgroSciences LLC, priority 2015, dated 2017).

In data set [1] the test system is Beet Armyworm (Spodoptera exigua, LAPHEG). Description: Bioassay on Beet Armyworm (BAW), 128-well diet tray assay. To be noted: 168 h, 50 μg/cm^2 on artificial diet, second instar larvae, 25° C., five to seven days, average of eight wells, read-out: BAW % Control (or Mortality) rating. It counts as in vivo. The procedure:
(§1) Bioassays on Beet Armyworm (Spodoptera exigua, LAPHEG) (“BAW”) and Cabbage Looper (Trichoplusia ni, TRIPNI) (“CL”)
(§2) Certain molecules disclosed in this document were tested against BAW and CL using procedures described in the following examples. In the reporting of the results, the “BAW & CL Rating Table” was used (See Table Section).
Bioassays on BAW were conducted using a 128-well diet tray assay. One to five second instar BAW larvae were placed in each well (3 mL) of the diet tray that had been previously filled with 1 mL of artificial diet to which 50 μg/cm^2 of the test molecule (dissolved in 50 μL of 90:10 acetone-water mixture) had been applied (to each of eight wells) and then allowed to dry. Trays were covered with a clear self-adhesive cover, vented to allow gas exchange, and held at 25° C., 14:10 light-dark for five to seven days. Percent mortality was recorded for the larvae in each well; activity in the eight wells was then averaged. The results are indicated in the table entitled “Table ABC: Biological Results” (See Table Section).

Data set [2] relates to Cabbage Looper (Trichoplusia ni, TRIPNI). Description: Bioassay on Cabbage Looper (CL), 128-well diet tray assay. It counts as in vivo. The following applies: 168 h, 50 μg/cm^2 on artificial diet, second instar larvae, 25° C., five to seven days, average of eight wells, read-out: CL % Control (or Mortality) rating. The method, then:
as §1, §2
Bioassays on CL were conducted using a 128-well diet tray assay. One to five second instar CL larvae were placed in each well (3 mL) of the diet tray that had been previously filled with 1 mL of artificial diet to which 50 μg/cm^2 of the test molecule (dissolved in 50 μL of 90:10 acetone-water mixture) had been applied (to each of eight wells) and then allowed to dry. Trays were covered with a clear self-adhesive cover, vented to allow gas exchange, and held at 25° C., 14:10 light-dark for five to seven days. Percent mortality was recorded for the larvae in each well; activity in the eight wells was then averaged. The results are indicated in the table entitled “Table ABC: Biological Results” (See Table Section).

Data set [3] has as its system Yellow Fever Mosquito (Aedes aegypti, AEDSAE). It counts as in vivo. To be noted: 4000 ppm DMSO master solution diluted, about 1 day-old larvae, room temperature, scored after 3 days. The procedure: Bioassays on Yellow Fever Mosquito (Aedes aegypti, AEDSAE) (“YFM”)
Certain molecules disclosed in this document were tested against YFM using procedures described in the following paragraph. In the reporting of the results, the “YFM Rating Table” was used (See Table Section).
Master plates containing 400 μg of a molecule dissolved in 100 μL of dimethyl sulfoxide (DMSO) (equivalent to a 4000 ppm solution) are used. A master plate of assembled molecules contains 15 μL per well. To this plate, 135 μL of a 90:10 water/acetone mixture is added to each well. A robot (Biomek® NXP Laboratory Automation Workstation) is programmed to dispense 15 μL aspirations from the master plate into an empty 96-well shallow plate (“daughter” plate). There are 6 reps (“daughter” plates) created per master. The created “daughter” plates are then immediately infested with YFM larvae.
The day before plates are to be treated, mosquito eggs are placed in Millipore water containing liver powder to begin hatching (4 g into 400 mL). After the “daughter” plates are created using the robot, they are infested with 220 μL of the liver powder/larval mosquito mixture (about 1 day-old larvae). After plates are infested with mosquito larvae, a non-evaporative lid is used to cover the plate to reduce drying. […] After 3 days, each well is observed and scored based on mortality. […]

Broadly, the mortality is the percentage killed. On to `CCCc1ccc(C)cc1N1C(=O)CS/C1=N\C(=O)Nc1ccc(CNc2ncn(-c3ccc(OC(F)(F)F)cc3)n2)cc1` [F3, (Z)-1-(3-(5-Methyl-2-propylphenyl)-4-oxothiazolidin-2-ylidene)-3-(4-(((1-(4-(trifluoromethoxy)phenyl)-1H-1,2,4-triazol-3-yl)amino)methyl)phenyl)urea], for which the mortality at 50 µg/cm2 in data set [1] and in data set [2] was 50 to 100% in each case. Further, the “YFM % Control (or Mortality) rating” value in data set [3] is on record as “A (80-100)”.
The melting point is the temperature, or range, at which the solid turns liquid. As for `Cc1ccc(C(C)C)c(N2C(=O)CS/C2=N\C(=O)Nc2ccc(CNc3ncn(-c4ccc(OC(F)(F)F)cc4)n3)cc2F)c1`, the melting point was 236 to 238 °C.
Take `CCCc1ccc(C)cc1N1C(=O)CS/C1=N\C(=O)Nc1ccc(CN(C)c2ncn(-c3ccc(OC(F)(F)F)cc3)n2)cn1`: the melting point was 184 °C (dec.).
Regarding `COCc1ccc(C)cc1N1C(=O)CS/C1=N\C(=O)Nc1ccc(CNc2ncn(-c3ccc(OC(F)(F)F)cc3)n2)cc1F`, the melting point was in the range of 205 to 207 °C.
Turning to `Cc1ccc(C(C)C)c(N2C(=O)CS/C2=N\C(=O)Nc2ccc(C(=O)N(C)c3ncn(-c4ccc(OC(F)(F)F)cc4)n3)cc2)c1` [F25, (Z)-4-(3-(3-(2-isopropyl-5-methylphenyl)-4-oxothiazolidin-2-ylidene)ureido)-N-methyl-N-(1-(4-(trifluoromethoxy)phenyl)-1H-1,2,4-triazol-3-yl)benzamide], the mortality at 50 µg/cm2 in data set [1] and in data set [2] was 50 to 100% in each case.
In turn, `CCCc1ccc(C)cc1N1C(=O)CS/C1=N\C(=O)Nc1ccc(CN(C)c2ncn(-c3ccc(OC(F)(F)F)cc3)n2)cc1F` had a melting point of 174 to 176 °C.
With `Cc1ccc(C(C)C)c(N2C(=O)CS/C2=N\C(=O)Nc2ccc(NCc3ncn(-c4ccc(OC(F)(F)F)cc4)n3)cn2)c1` [F47, (Z)-1-(3-(2-isopropyl-5-methylphenyl)-4-oxothiazolidin-2-ylidene)-3-(5-(((1-(4-(trifluoromethoxy)phenyl)-1H-1,2,4-triazol-3-yl)methyl)amino)pyridin-2-yl)urea], the mortality at 50 µg/cm2 in data set [1] and in data set [2] was 50 to 100% throughout.
With `COCc1ccc(C)cc1N1C(=O)CS/C1=N\C(=O)Nc1ccc(CN(C)c2ncn(-c3ccc(OC(F)(F)F)cc3)n2)c(Cl)c1` [F18, (Z)-1-(3-Chloro-4-((methyl(1-(4-(trifluoromethoxy)phenyl)-1H-1,2,4-triazol-3-yl)amino)methyl)phenyl)-3-(3-(2-(methoxymethyl)-5-methylphenyl)-4-oxothiazolidin-2-ylidene)urea], the mortality at 50 µg/cm2 in data set [1] and in data set [2] was 0 to 50% each time.
With `Cc1ccc(C(C)C)c(N2C(=O)CS/C2=N\C(=O)Nc2ccc(NCc3ncn(-c4ccc(OC(F)(F)F)cc4)n3)cc2)c1` [F28, (Z)-1-(3-(2-isopropyl-5-methylphenyl)-4-oxothiazolidin-2-ylidene)-3-(4-(((1-(4-(trifluoromethoxy)phenyl)-1H-1,2,4-triazol-3-yl)methyl)amino)phenyl)urea], the mortality at 50 µg/cm2 in data set [1] and in data set [2] was 50 to 100% in each case.
Regarding `CCCc1ccc(C)cc1N1C(=O)CS/C1=N\C(=O)Nc1ccc(CNc2ncn(-c3ccc(OC(F)(F)F)cc3)n2)cc1F` [F5, (Z)-1-(2-Fluoro-4-(((1-(4-(trifluoromethoxy)phenyl)-1H-1,2,4-triazol-3-yl)amino)methyl)phenyl)-3-(3-(5-methyl-2-propylphenyl)-4-oxothiazolidin-2-ylidene)urea], the mortality at 50 µg/cm2 in data set [1] and in data set [2] was 50 to 100% in each case. In data set [3], the “YFM % Control (or Mortality) rating” value is given as “A (80-100)”.
Turning to `COCc1ccc(C)cc1N1C(=O)CS/C1=N\C(=O)Nc1ccc(CN(C)c2ncn(-c3ccc(OC(F)(F)F)cc3)n2)cn1` [F14, (Z)-1-(3-(2-(Methoxymethyl)-5-methylphenyl)-4-oxothiazolidin-2-ylidene)-3-(5-((methyl(1-(4-(trifluoromethoxy)phenyl)-1H-1,2,4-triazol-3-yl)amino)methyl)pyridin-2-yl)urea], the mortality at 50 µg/cm2 in data set [1] and in data set [2] was 50 to 100% in each case.
